Results published in patent US9170257B2 (priority 2012, dated 2015).
Like-named read-outs stand apart in the source and are kept apart here.

Columns and labels:
[1] = Bench stability in Phase 1 human plasma samples; type: in vitro ADME; conditions: human plasma with Na-phosphate, room temperature, a couple of hours
Protocol: After the addition of 50 μl 5% H3PO4 to 950 ml plasma the pH was 4.4.

[2] = Tissue distribution of curcumin and THC at necropsy 15 minutes post-infusion; design: species or system Beagle dogs; conditions: for Plasma concentration used to calculate Kp: average of end of infusion and 15 minutes post infusion; for concentration at 15 min / Kp at 2 h / Kp at 8 h: both sexes, dog, in vivo, 10 mg/kg; for Kp at 2 h: 2 hr infusion; for Kp at 2 h / Kp at 8 h: H3PO4 stabilized; for Kp at 8 h: 8 hr infusion
Protocol: The test article will be administered to 8 Beagle dogs by intravenous infusion over two hours (Part A) or eight hours (Part B) as shown in Table 6.
Multiple samples of tissue weighing approximately 1 gram were removed and snap frozen in the presence or absence of phosphoric acid (H3PO4). For all tissue samples, the levels of curcumin and THC were determined using a method developed by the Bioanalytical Department at Nucro-Technics. […] Values that were below the limit of quantification were assigned a value of 0. […] Tissue distribution data was analyzed using, unless stated, the data from 4 dogs and are presented as the mean±standard error (S.E.).

[3] = beagle, read-out: Kp [tissue]/[plasma], Brain Stem
[4] = beagle, read-out: Kp [tissue]/[plasma], Cortex, Brain
[5] = beagle, read-out: Kp [tissue]/[plasma], Hippocampus
[6] = beagle, read-out: Kp [tissue]/[plasma], Kidney
[7] = beagle, read-out: Kp [tissue]/[plasma], Liver
[8] = beagle, read-out: Kp [tissue]/[plasma], Lungs
[9] = beagle, read-out: Kp [tissue]/[plasma], Muscle
[10] = beagle, read-out: Kp [tissue]/[plasma], Pancreas

**Q.** For `COc1cc(CCC(=O)CC(=O)CCc2ccc(O)c(OC)c2)ccc1O` [THC, tetrahydrocurcumin], which bench stability [1] is on record?
**A.** minimal

**Q.** What about the “Tissue level, Liver” value ([2]; 2 hour infusion, Plus H3PO4) of the same compound?
**A.** 0.45 ng/g

**Q.** What about the “Tissue level, Lungs” value ([2]; 2 hour infusion, Plus H3PO4) of the same compound?
**A.** 2.14 ng/g

**Q.** What about the “Plasma concentration used to calculate Kp” value ([2]; 2 hours infusion) of the same compound?
**A.** 810.9 ng/mL

**Q.** What about the “Tissue level, Lungs” value ([2]; 8 hour infusion, Plus H3PO4) of the same compound?
**A.** 6.36 ng/g

**Q.** What about the “Plasma concentration used to calculate Kp” value ([2]; 8 hours infusion) of the same compound?
**A.** 104.5 ng/mL

**Q.** What about the concentration at 15 min ([2]; Beagle, 2 hour infusion, No H3PO4, read-out: Tissue level, Brain Stem) of the same compound?
**A.** 2.34 ng/g

**Q.** And the concentration at 15 min ([2]; beagle, 2 hour infusion, No H3PO4, read-out: Tissue level, Cortex, Brain)?
**A.** 0.68 ng/g

**Q.** And the concentration at 15 min ([2]; beagle, 2 hour infusion, No H3PO4, read-out: Tissue level, Heart)?
**A.** 2.51 ng/g

**Q.** What about the concentration at 15 min ([2]; beagle, 2 hour infusion, No H3PO4, read-out: Tissue level, Hippocampus) of the same compound?
**A.** 0.75 ng/g

**Q.** And the concentration at 15 min ([2]; beagle, 2 hour infusion, No H3PO4, read-out: Tissue level, Kidney)?
**A.** 3.06 ng/g

**Q.** And the concentration at 15 min ([2]; beagle, 2 hour infusion, No H3PO4, read-out: Tissue level, Liver)?
**A.** 1.9 ng/g

**Q.** What about the concentration at 15 min ([2]; beagle, 2 hour infusion, No H3PO4, read-out: Tissue level, Lungs) of the same compound?
**A.** 25 ng/g

**Q.** And the concentration at 15 min ([2]; beagle, 2 hour infusion, No H3PO4, read-out: Tissue level, Muscle)?
**A.** 5.26 ng/g

**Q.** And the concentration at 15 min ([2]; beagle, 2 hour infusion, No H3PO4, read-out: Tissue level, Pancreas)?
**A.** 2.02 ng/g

**Q.** And the concentration at 15 min ([2]; beagle, 2 hour infusion, No H3PO4, read-out: Tissue level, Striatum)?
**A.** 6.22 ng/g

**Q.** And the concentration at 15 min ([2]; beagle, 2 hour infusion, No H3PO4, read-out: Tissue level, Urinary Bladder)?
**A.** 0.84 ng/g

**Q.** What about the concentration at 15 min ([2]; beagle, 2 hour infusion, Plus H3PO4, read-out: Tissue level, Brain Stem) of the same compound?
**A.** 10.6 ng/g

**Q.** And the concentration at 15 min ([2]; beagle, 2 hour infusion, Plus H3PO4, read-out: Tissue level, Cortex, Brain)?
**A.** 3.08 ng/g

**Q.** What about the concentration at 15 min ([2]; beagle, 2 hour infusion, Plus H3PO4, read-out: Tissue level, Heart) of the same compound?
**A.** 0.69 ng/g

**Q.** What about the concentration at 15 min ([2]; beagle, 2 hour infusion, Plus H3PO4, read-out: Tissue level, Hippocampus) of the same compound?
**A.** 6.46 ng/g

**Q.** What about the concentration at 15 min ([2]; beagle, 2 hour infusion, Plus H3PO4, read-out: Tissue level, Kidney) of the same compound?
**A.** 4.25 ng/g

**Q.** What about the concentration at 15 min ([2]; beagle, 2 hour infusion, Plus H3PO4, read-out: Tissue level, Muscle) of the same compound?
**A.** 4.19 ng/g

**Q.** What about the concentration at 15 min ([2]; beagle, 2 hour infusion, Plus H3PO4, read-out: Tissue level, Pancreas) of the same compound?
**A.** 0.92 ng/g

**Q.** And the concentration at 15 min ([2]; beagle, 2 hour infusion, Plus H3PO4, read-out: Tissue level, Striatum)?
**A.** 11.1 ng/g

**Q.** What about the concentration at 15 min ([2]; beagle, 2 hour infusion, Plus H3PO4, read-out: Tissue level, Urinary Bladder) of the same compound?
**A.** 0.87 ng/g

**Q.** And the Kp at 2 h [2, 3]?
**A.** 0.0037

**Q.** And the Kp at 2 h [2, 4]?
**A.** 0.0006

**Q.** What about the Kp at 2 h [2, 5] of the same compound?
**A.** 0.0014

**Q.** And the Kp at 2 h [2, 6]?
**A.** 0.0025

**Q.** What about the Kp at 2 h [2, 7] of the same compound?
**A.** 0.0028

**Q.** And the Kp at 2 h [2, 8]?
**A.** 0.0078

**Q.** What about the Kp at 2 h [2, 9] of the same compound?
**A.** 0.0011

**Q.** What about the Kp at 2 h [2, 10] of the same compound?
**A.** 0.0017

**Q.** And the Kp at 2 h ([2]; beagle, read-out: Kp [tissue]/[plasma], Striatum)?
**A.** 0.0039

**Q.** And the Kp at 2 h ([2]; beagle, read-out: Kp [tissue]/[plasma], Urinary Bladder)?
**A.** 0.0014

**Q.** And the concentration at 15 min ([2]; beagle, 8 hour infusion, No H3PO4, read-out: Tissue level, Brain Stem)?
**A.** 0.83 ng/g

**Q.** And the concentration at 15 min ([2]; beagle, 8 hour infusion, No H3PO4, read-out: Tissue level, Cortex, Brain)?
**A.** 0.06 ng/g

**Q.** What about the concentration at 15 min ([2]; beagle, 8 hour infusion, No H3PO4, read-out: Tissue level, Heart) of the same compound?
**A.** 0.51 ng/g

**Q.** And the concentration at 15 min ([2]; beagle, 8 hour infusion, No H3PO4, read-out: Tissue level, Hippocampus)?
**A.** 0.01 ng/g

**Q.** What about the concentration at 15 min ([2]; beagle, 8 hour infusion, No H3PO4, read-out: Tissue level, Kidney) of the same compound?
**A.** 1.32 ng/g

**Q.** And the concentration at 15 min ([2]; beagle, 8 hour infusion, No H3PO4, read-out: Tissue level, Liver)?
**A.** 2.63 ng/g

**Q.** And the concentration at 15 min ([2]; beagle, 8 hour infusion, No H3PO4, read-out: Tissue level, Lungs)?
**A.** 10.8 ng/g

**Q.** And the concentration at 15 min ([2]; beagle, 8 hour infusion, No H3PO4, read-out: Tissue level, Muscle)?
**A.** 0.38 ng/g

**Q.** And the concentration at 15 min ([2]; beagle, 8 hour infusion, No H3PO4, read-out: Tissue level, Pancreas)?
**A.** 0.34 ng/g

**Q.** And the concentration at 15 min ([2]; beagle, 8 hour infusion, No H3PO4, read-out: Tissue level, Striatum)?
**A.** 1.12 ng/g

**Q.** What about the concentration at 15 min ([2]; beagle, 8 hour infusion, No H3PO4, read-out: Tissue level, Urinary Bladder) of the same compound?
**A.** 1.37 ng/g

**Q.** And the concentration at 15 min ([2]; beagle, 8 hour infusion, Plus H3PO4, read-out: Tissue level, Brain Stem)?
**A.** 3.02 ng/g

**Q.** What about the concentration at 15 min ([2]; beagle, 8 hour infusion, Plus H3PO4, read-out: Tissue level, Cortex, Brain) of the same compound?
**A.** 0.49 ng/g

**Q.** And the concentration at 15 min ([2]; beagle, 8 hour infusion, Plus H3PO4, read-out: Tissue level, Heart)?
**A.** 0.03 ng/g

**Q.** And the concentration at 15 min ([2]; beagle, 8 hour infusion, Plus H3PO4, read-out: Tissue level, Hippocampus)?
**A.** 1.13 ng/g

**Q.** And the concentration at 15 min ([2]; beagle, 8 hour infusion, Plus H3PO4, read-out: Tissue level, Kidney)?
**A.** 2.04 ng/g

**Q.** What about the concentration at 15 min ([2]; beagle, 8 hour infusion, Plus H3PO4, read-out: Tissue level, Liver) of the same compound?
**A.** 2.25 ng/g

**Q.** What about the concentration at 15 min ([2]; beagle, 8 hour infusion, Plus H3PO4, read-out: Tissue level, Muscle) of the same compound?
**A.** 0.93 ng/g

**Q.** What about the concentration at 15 min ([2]; beagle, 8 hour infusion, Plus H3PO4, read-out: Tissue level, Pancreas) of the same compound?
**A.** 1.34 ng/g

**Q.** What about the concentration at 15 min ([2]; beagle, 8 hour infusion, Plus H3PO4, read-out: Tissue level, Striatum) of the same compound?
**A.** 3.14 ng/g

**Q.** And the concentration at 15 min ([2]; beagle, 8 hour infusion, Plus H3PO4, read-out: Tissue level, Urinary Bladder)?
**A.** 1.11 ng/g

**Q.** What about the Kp at 8 h [2, 3] of the same compound?
**A.** 0.0289

**Q.** What about the Kp at 8 h [2, 4] of the same compound?
**A.** 0.0047

**Q.** What about the Kp at 8 h ([2]; beagle, read-out: Kp [tissue]/[plasma], Heart) of the same compound?
**A.** 0.0003

**Q.** And the Kp at 8 h [2, 5]?
**A.** 0.0108

**Q.** What about the Kp at 8 h [2, 6] of the same compound?
**A.** 0.0195

**Q.** What about the Kp at 8 h [2, 7] of the same compound?
**A.** 0.0215

**Q.** What about the Kp at 8 h [2, 8] of the same compound?
**A.** 0.0609

**Q.** And the Kp at 8 h [2, 9]?
**A.** 0.0089

**Q.** What about the Kp at 8 h [2, 10] of the same compound?
**A.** 0.0128
